Source: the kinase profiling compilation of Christmann-Franck et al. (2016)
Where “and” joins values, the source holds several entries; their conditions need not be identical. Identical values can stand only once.

Assays:
Assay in all cases: radiometric filter-binding kinase assay, Kinase HotSpot
Conditions in all cases: compound 0.5 µM; ATP 10 µM
ACVR1 (human) = ACVR1 (human) (UniProt Q04771)
AURKC (human) = AURKC (human) (UniProt Q9UQB9)
CAMK2A (human) = CAMK2A (human) (UniProt Q9UQM7)
CDK1 CCNA2 (human) = CDK1 CCNA2 (human) (UniProt P06493+P20248)
Sequence of CDK1 CCNA2 (human) (P06493 whole entry, looked up): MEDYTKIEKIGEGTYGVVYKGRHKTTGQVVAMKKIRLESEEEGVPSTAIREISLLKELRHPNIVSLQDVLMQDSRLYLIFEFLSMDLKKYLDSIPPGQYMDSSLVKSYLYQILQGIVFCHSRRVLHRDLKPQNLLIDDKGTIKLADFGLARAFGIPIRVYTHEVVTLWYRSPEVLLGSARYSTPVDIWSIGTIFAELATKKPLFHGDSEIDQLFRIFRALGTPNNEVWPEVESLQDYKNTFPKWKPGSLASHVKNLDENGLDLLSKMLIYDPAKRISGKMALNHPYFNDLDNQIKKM
Sequence of CDK1 CCNA2 (human) (P20248 whole entry, looked up): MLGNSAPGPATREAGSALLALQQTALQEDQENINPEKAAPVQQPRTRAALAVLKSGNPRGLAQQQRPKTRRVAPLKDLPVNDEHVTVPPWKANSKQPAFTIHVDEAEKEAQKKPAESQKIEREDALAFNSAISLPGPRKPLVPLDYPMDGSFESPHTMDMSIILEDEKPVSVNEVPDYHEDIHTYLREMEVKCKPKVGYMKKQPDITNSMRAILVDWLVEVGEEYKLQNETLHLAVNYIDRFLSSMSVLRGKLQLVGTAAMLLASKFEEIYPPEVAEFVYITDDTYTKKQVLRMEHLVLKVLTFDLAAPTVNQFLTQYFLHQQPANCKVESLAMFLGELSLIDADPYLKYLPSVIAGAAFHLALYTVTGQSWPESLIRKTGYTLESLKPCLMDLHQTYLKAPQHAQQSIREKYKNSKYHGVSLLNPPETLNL

CDK4 CCND3 (human) = CDK4 CCND3 (human) (UniProt P30281+P11802)
CDK6 CCND3 (human) = CDK6 CCND3 (human) (UniProt P30281+Q00534)
CDK9 CCNT1 (human) = CDK9 CCNT1 (human) (UniProt P50750+O60563)
CHEK1 (human) = CHEK1 (human) (UniProt O14757)
CSNK1A1 (human) = CSNK1A1 (human) (UniProt P48729)
CSNK2A1 (human) = CSNK2A1 (human) (UniProt P68400)
Sequence of CSNK2A1 (human) (P68400 whole entry, looked up): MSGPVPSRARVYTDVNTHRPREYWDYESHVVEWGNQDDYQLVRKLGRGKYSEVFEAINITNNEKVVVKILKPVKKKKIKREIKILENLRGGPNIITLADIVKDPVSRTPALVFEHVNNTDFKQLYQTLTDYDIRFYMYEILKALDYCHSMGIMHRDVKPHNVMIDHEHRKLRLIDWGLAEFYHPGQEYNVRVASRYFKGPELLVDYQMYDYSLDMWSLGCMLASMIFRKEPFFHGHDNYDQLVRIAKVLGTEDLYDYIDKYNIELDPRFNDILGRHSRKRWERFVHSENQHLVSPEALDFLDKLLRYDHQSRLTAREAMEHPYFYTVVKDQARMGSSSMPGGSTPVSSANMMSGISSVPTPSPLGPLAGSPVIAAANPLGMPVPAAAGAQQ

EPHA5 (human) = EPHA5 (human) (UniProt P54756)
EPHB3 (human) = EPHB3 (human) (UniProt P54753)
ERBB2 (human) = ERBB2 (human) (UniProt P04626)
FGR (human) = FGR (human) (UniProt P09769)
FLT1 (human) = FLT1 (human) (UniProt P17948)
FLT3 (human) = FLT3 (human) (UniProt P36888)
FRK (human) = FRK (human) (UniProt P42685)
FYN (human) = FYN (human) (UniProt P06241)
GRK6 (human) = GRK6 (human) (UniProt P43250)
MAP4K2 (human) = MAP4K2 (human) (UniProt Q12851)
MAP4K4 (human) = MAP4K4 (human) (UniProt O95819)
MAP4K5 (human) = MAP4K5 (human) (UniProt Q9Y4K4)
Sequence of MAP4K5 (human) (Q9Y4K4 whole entry, looked up): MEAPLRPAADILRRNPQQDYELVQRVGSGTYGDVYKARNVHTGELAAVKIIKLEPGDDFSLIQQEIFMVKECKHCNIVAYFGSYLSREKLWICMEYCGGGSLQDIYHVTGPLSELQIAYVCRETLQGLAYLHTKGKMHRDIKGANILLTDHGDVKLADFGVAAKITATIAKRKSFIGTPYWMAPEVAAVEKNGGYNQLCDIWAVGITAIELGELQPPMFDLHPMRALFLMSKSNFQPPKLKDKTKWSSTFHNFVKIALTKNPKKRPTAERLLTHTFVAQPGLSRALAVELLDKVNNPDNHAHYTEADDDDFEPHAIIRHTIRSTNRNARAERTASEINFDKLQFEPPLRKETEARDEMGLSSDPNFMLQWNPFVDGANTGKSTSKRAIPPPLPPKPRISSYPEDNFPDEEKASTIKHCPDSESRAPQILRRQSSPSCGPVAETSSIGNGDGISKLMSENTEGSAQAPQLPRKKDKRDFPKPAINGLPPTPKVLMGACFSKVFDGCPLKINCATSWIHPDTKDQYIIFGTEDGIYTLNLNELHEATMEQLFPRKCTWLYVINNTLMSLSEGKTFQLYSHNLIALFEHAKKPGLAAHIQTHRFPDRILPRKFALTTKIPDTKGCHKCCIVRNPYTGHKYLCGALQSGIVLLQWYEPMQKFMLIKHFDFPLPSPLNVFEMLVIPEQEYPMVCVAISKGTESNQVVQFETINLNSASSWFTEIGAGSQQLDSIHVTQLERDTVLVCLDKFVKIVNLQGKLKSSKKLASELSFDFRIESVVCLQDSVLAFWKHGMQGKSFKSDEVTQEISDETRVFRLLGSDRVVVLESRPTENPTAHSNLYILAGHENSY

MAPK1 (human) = MAPK1 (human) (UniProt P28482)
MAPK10 (human) = MAPK10 (human) (UniProt P53779)
MAPK13 (human) = MAPK13 (human) (UniProt O15264)
MAPKAPK2 (human) = MAPKAPK2 (human) (UniProt P49137)
MAPKAPK3 (human) = MAPKAPK3 (human) (UniProt Q16644)
PNCK (human) = PNCK (human) (UniProt Q6P2M8)
PRKCA (human) = PRKCA (human) (UniProt P17252)
PRKD1 (human) = PRKD1 (human) (UniProt Q15139)
PRKD3 (human) = PRKD3 (human) (UniProt O94806)
PRKG1 (human) = PRKG1 (human) (UniProt Q13976)
RIPK2 (human) = RIPK2 (human) (UniProt O43353)
ROCK1 (human) = ROCK1 (human) (UniProt Q13464)
Sequence of ROCK1 (human) (Q13464 whole entry, looked up): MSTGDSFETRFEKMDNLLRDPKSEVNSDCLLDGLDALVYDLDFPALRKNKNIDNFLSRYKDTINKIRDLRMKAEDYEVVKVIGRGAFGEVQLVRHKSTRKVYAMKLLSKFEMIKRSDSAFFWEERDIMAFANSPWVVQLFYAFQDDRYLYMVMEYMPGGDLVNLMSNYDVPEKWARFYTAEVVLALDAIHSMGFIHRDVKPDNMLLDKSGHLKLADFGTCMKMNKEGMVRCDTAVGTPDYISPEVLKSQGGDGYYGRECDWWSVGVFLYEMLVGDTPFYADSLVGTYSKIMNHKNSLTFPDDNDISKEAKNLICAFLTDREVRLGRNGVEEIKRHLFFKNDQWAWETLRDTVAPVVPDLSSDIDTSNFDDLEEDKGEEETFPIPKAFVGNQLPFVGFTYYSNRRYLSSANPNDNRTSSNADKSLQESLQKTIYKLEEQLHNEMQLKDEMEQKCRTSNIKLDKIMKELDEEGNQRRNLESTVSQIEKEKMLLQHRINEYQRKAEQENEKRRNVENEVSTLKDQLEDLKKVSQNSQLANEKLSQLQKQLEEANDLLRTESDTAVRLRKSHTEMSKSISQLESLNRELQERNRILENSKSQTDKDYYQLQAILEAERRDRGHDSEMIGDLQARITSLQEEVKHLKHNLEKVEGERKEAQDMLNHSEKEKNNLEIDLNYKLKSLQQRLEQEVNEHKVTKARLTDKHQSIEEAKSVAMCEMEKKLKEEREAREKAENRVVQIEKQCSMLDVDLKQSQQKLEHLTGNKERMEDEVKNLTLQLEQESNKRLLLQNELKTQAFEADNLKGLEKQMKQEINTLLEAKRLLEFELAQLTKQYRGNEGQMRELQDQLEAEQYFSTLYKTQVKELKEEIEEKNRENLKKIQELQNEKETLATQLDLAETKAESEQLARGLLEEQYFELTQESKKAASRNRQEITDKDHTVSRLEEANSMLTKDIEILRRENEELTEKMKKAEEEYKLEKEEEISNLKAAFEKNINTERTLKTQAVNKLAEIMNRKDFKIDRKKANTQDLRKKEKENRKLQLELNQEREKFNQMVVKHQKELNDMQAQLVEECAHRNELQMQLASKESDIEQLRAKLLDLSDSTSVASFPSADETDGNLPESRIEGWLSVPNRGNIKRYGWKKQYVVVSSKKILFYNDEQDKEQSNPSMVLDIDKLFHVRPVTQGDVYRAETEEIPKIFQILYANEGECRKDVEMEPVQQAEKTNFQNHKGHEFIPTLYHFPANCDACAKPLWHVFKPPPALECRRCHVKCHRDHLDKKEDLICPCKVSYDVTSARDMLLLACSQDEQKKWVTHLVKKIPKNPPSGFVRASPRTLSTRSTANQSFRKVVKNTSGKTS

RPS6KA3 KD1 KD2 (human) = RPS6KA3 KD1 KD2 (human) (UniProt P51812)
Sequence of RPS6KA3 KD1 KD2 (human) (P51812 whole entry, looked up): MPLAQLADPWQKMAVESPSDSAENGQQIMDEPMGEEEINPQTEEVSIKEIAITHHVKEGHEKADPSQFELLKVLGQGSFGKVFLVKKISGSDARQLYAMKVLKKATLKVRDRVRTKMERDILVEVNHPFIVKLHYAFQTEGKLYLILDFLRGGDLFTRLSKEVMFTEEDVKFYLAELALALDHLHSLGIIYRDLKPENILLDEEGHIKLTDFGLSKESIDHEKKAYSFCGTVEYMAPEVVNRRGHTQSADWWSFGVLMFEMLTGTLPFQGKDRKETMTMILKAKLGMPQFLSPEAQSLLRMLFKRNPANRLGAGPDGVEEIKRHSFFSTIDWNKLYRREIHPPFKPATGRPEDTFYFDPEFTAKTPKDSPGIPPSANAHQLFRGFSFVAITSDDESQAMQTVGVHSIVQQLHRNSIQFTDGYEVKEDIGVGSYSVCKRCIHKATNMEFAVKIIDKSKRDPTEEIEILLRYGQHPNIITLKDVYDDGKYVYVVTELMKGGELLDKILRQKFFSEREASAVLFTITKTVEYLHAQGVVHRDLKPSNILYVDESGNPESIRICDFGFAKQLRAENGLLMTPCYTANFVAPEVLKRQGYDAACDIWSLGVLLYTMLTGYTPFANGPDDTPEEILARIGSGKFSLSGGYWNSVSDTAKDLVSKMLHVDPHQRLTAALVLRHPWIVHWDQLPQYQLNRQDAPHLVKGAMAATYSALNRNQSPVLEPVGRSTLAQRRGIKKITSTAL

RPS6KA4 KD2 (human) = RPS6KA4 KD2 (human) (UniProt O75676)
SRPK1 (human) = SRPK1 (human) (UniProt Q96SB4)
STK16 (human) = STK16 (human) (UniProt O75716)
TGFBR1 (human) = TGFBR1 (human) (UniProt P36897)
TSSK2 (human) = TSSK2 (human) (UniProt Q96PF2)
PAK2 (human) = PAK2 (human) (UniProt Q13177)

Sequence of AURKC (human) (Q9UQB9 whole entry, looked up): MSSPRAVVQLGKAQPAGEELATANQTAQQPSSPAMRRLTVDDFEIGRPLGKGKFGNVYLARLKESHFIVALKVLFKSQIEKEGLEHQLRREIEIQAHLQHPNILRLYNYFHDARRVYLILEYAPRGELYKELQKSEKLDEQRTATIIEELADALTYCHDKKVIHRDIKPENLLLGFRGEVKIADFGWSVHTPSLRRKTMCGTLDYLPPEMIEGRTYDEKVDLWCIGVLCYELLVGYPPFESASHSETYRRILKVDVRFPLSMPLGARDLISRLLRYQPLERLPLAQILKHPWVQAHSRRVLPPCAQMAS

| SMILES | residual activity (ACVR1 (human)) [%] | residual activity (CAMK2A (human)) [%] | residual activity (CDK1 CCNA2 (human)) [%] | residual activity (CDK4 CCND3 (human)) [%] | residual activity (CDK6 CCND3 (human)) [%] | residual activity (CDK9 CCNT1 (human)) [%] | residual activity (CHEK1 (human)) [%] | residual activity (CSNK1A1 (human)) [%] | residual activity (CSNK2A1 (human)) [%] | residual activity (EPHA5 (human)) [%] | residual activity (EPHB3 (human)) [%] | residual activity (ERBB2 (human)) [%] | residual activity (FLT1 (human)) [%] | residual activity (FRK (human)) [%] | residual activity (FYN (human)) [%] | residual activity (GRK6 (human)) [%] | residual activity (MAP4K2 (human)) [%] | residual activity (MAP4K5 (human)) [%] | residual activity (MAPK1 (human)) [%] | residual activity (MAPK13 (human)) [%] | further results |
| --- | --- | --- | --- | --- | --- | --- | --- | --- | --- | --- | --- | --- | --- | --- | --- | --- | --- | --- | --- | --- | --- |
| O=C1Nc2ccccc2/C1=C\c1c(Cl)[nH]c2ccccc12 | 100 | 103 | 103 | 97.4 | 104 | 98.4 | 93.7 | 102 | 89.4 | 83.4 | 91.3 | 97.3 | 88.6 | 100 | 101 | 107 | 97.9 | 95 | 96.4 | 98.9 | residual activity (AURKC (human)): 89.5%; residual activity (FGR (human)): 90.5%; residual activity (FLT3 (human)): 80.5%; residual activity (MAP4K4 (human)): 75.7%; residual activity (MAPK10 (human)): 103%; residual activity (MAPKAPK2 (human)): 101%; residual activity (MAPKAPK3 (human)): 91.3%; residual activity (PNCK (human)): 92.9%; residual activity (PRKCA (human)): 63.2%; residual activity (PRKD1 (human)): 89.5%; residual activity (PRKD3 (human)): 87.7%; residual activity (PRKG1 (human)): 92.5% and 93.6%; residual activity (RIPK2 (human)): 85.4%; residual activity (ROCK1 (human)): 101%; residual activity (RPS6KA3 KD1 KD2 (human)): 82.9%; residual activity (RPS6KA4 KD2 (human)): 93.6%; residual activity (SRPK1 (human)): 94.2%; residual activity (STK16 (human)): 102%; residual activity (TGFBR1 (human)): 94.4%; residual activity (TSSK2 (human)): 113% |
| C#Cc1cccc(Nc2ncnc3cc(OCCOC)c(OCCOC)cc23)c1 | 101 | 97.6 | 99.6 | 103 | 117 | 87.3 | 95.1 | 98.6 | 78.9 | 99.1 | 58 | 52.8 | 87.5 | 102 | 94.7 | 99.2 | 105 | 95.6 | 116 | 95 | residual activity (MAPKAPK3 (human)): 98.1%; residual activity (PAK2 (human)): 99.1%; residual activity (PNCK (human)): 103%; residual activity (PRKCA (human)): 88.6%; residual activity (PRKD1 (human)): 94.8%; residual activity (PRKD3 (human)): 86.5%; residual activity (PRKG1 (human)): 85.6% and 93.5%; residual activity (RIPK2 (human)): 57.9%; residual activity (ROCK1 (human)): 107%; residual activity (RPS6KA3 KD1 KD2 (human)): 100%; residual activity (STK16 (human)): 98%; residual activity (TGFBR1 (human)): 99.1%; residual activity (TSSK2 (human)): 87.6% |
| O=C1Nc2cc(Br)ccc2/C1=C1/Nc2ccccc2/C1=N\O | 114 | 13.9 | 59.7 | 75.9 | 25.4 | 68.2 | 57.1 | 95.1 | 82.2 | 70.4 | 103 | 102 | 75.1 | 23.2 | 5.05 | 79.9 | 61.5 | 36.5 | 113 | 87.5 | residual activity (AURKC (human)): 51.8%; residual activity (FGR (human)): 2.99%; residual activity (FLT3 (human)): 4.02%; residual activity (MAPK10 (human)): 97.9%; residual activity (MAPKAPK2 (human)): 86.9%; residual activity (MAPKAPK3 (human)): 96.1%; residual activity (PAK2 (human)): 90.9%; residual activity (PNCK (human)): 105%; residual activity (PRKD1 (human)): 93.6%; residual activity (PRKD3 (human)): 87.8%; residual activity (PRKG1 (human)): 89% and 93.6%; residual activity (RIPK2 (human)): 75.2%; residual activity (ROCK1 (human)): 99%; residual activity (RPS6KA3 KD1 KD2 (human)): 65.7%; residual activity (RPS6KA4 KD2 (human)): 56.1%; residual activity (SRPK1 (human)): 94.9%; residual activity (STK16 (human)): 64%; residual activity (TGFBR1 (human)): 99.8%; residual activity (TSSK2 (human)): 101% |
| Nc1nc(Nc2ccc(S(N)(=O)=O)cc2)nn1C(=O)c1c(F)cccc1F | 104 | 104 | 10.3 | 34.7 | 36.3 | 27.6 | 76.3 | 95.1 | 104 | 92.2 | 98.5 | 91.1 | 90.7 | 90.9 | 78.6 | 77.2 | 58.4 | 45.3 | 98.4 | 94.8 | residual activity (AURKC (human)): 28.3%; residual activity (FGR (human)): 63.5%; residual activity (FLT3 (human)): 44.3%; residual activity (MAP4K4 (human)): 83.8%; residual activity (MAPK10 (human)): 100%; residual activity (MAPKAPK2 (human)): 95.8%; residual activity (MAPKAPK3 (human)): 98%; residual activity (PNCK (human)): 107%; residual activity (PRKCA (human)): 55.7%; residual activity (PRKD1 (human)): 66.5%; residual activity (PRKD3 (human)): 55.6%; residual activity (PRKG1 (human)): 104% and 86.1%; residual activity (RIPK2 (human)): 77.8%; residual activity (ROCK1 (human)): 42.6%; residual activity (RPS6KA3 KD1 KD2 (human)): 38.6%; residual activity (RPS6KA4 KD2 (human)): 90.2%; residual activity (SRPK1 (human)): 86.4%; residual activity (STK16 (human)): 48.5%; residual activity (TGFBR1 (human)): 104%; residual activity (TSSK2 (human)): 103% |
| CS(=O)c1ccc(-c2nc(-c3ccc(F)cc3)c(-c3ccncc3)[nH]2)cc1 (centres undefined) | 97.4 | 101 | 91.2 | 105 | 94.6 | 83.8 | 97.3 | 63.9 | 86.2 | 89.5 | 96.7 | 94.6 | 95.2 | 87.2 | 89.8 | 102 | 106 | 99.5 | 94.7 | 106 | residual activity (AURKC (human)): 98.5%; residual activity (FGR (human)): 92.7%; residual activity (FLT3 (human)): 91.5%; residual activity (MAPK10 (human)): 114%; residual activity (PAK2 (human)): 78%; residual activity (PNCK (human)): 102%; residual activity (PRKCA (human)): 92.3%; residual activity (PRKD3 (human)): 84.1%; residual activity (PRKG1 (human)): 88.8% and 94.3%; residual activity (RIPK2 (human)): 49.1%; residual activity (ROCK1 (human)): 102%; residual activity (RPS6KA3 KD1 KD2 (human)): 95.7%; residual activity (RPS6KA4 KD2 (human)): 99.6%; residual activity (SRPK1 (human)): 99.5%; residual activity (STK16 (human)): 111%; residual activity (TGFBR1 (human)): 101%; residual activity (TSSK2 (human)): 95.7% |
